Laboratory results taken from patent publication EP0326331B1, “Substituted quinolines and cinnolines” (Dow AgroSciences LLC, priority 1988, dated 1989).
Like-named read-outs stand apart in the source and are kept apart here.

Experiments:
Format in all cases: in vivo
[1] = tested on: Erysiphe graminis tritici (powdery mildew); test: Test 1 greenhouse foliar spray screen, powdery mildew on wheat
[2] = tested on: Pyricularia oryzae (rice blast); test: whole plant or invertebrate
[3] = tested on: Puccinia recondita tritici (leaf rust); test: Test 1 greenhouse foliar spray screen, leaf rust on wheat
[4] = tested on: Botrytis cinerea (gray mold); test: Test 1 greenhouse foliar spray screen, gray mold on grape berries; conditions: for pest or weed control at 400 ppm: Botrytis cinerea, foliar, Test 1, spray on grape berries, disease control rating at 400 ppm / 100 ppm
[5] = tested on: Pseudoperonospora cubensis (downy mildew); test: Test 1 greenhouse foliar spray screen, downy mildew on squash
[6] = tested on: Cercospora beticola (leaf spot); test: Test 1 greenhouse foliar spray screen, leaf spot on sugar beet; conditions: for pest or weed control at 400 ppm: Cercospora beticola, Test 1, foliar spray on sugar beet, disease control rating at 400 ppm / 100 ppm
[7] = tested on: Venturia inaequalis (apple scab); test: Test 1 greenhouse foliar spray screen, apple scab on apple seedling; conditions: for pest or weed control at 400 ppm: Venturia inaequalis, Test 1, foliar spray on apple seedling, disease control rating at 400 ppm / 100 ppm, read-out: APPL SCAB
[8] = tested on: Septoria tritici (leaf blotch); test: Test 1 greenhouse foliar spray screen, leaf blotch on wheat; conditions: for pest or weed control at 400 ppm: Zymoseptoria tritici, Test 1, foliar spray on wheat, disease control rating at 400 ppm / 100 ppm, read-out: LEAF BLOT
Plasmopara viticola = test: Field tests against plant pathogens; conditions: field test, crop grape
Text: (§1) Selected compounds were field tested against a variety of plant pathogens. […]

Puccinia recondita = test: Field tests against plant pathogens; conditions: field test, crop wheat
Text: as §1

Rhynchosporium secalis = test: Field tests against plant pathogens; conditions: field test, crop barley
Text: as §1

[9] = tested on: southern armyworm (Spodopetra eridania Cramer); test: Mite/insect screen, SAW; conditions: percent mortality; for mortality at 200 ppm: Spodoptera eridania, read-out: SAW RESULTS %
Method in brief: (§2)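 First, each compound was dissolved in an emulsifier-containing acetone/alcohol mixture and diluted with water. Next, leaves were sprayed until runoff and left to dry for an hour. For southern armyworm, two excised uninfested leaves went into a Petri dish with larvae; percent mortality followed standard exposure periods.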

[10] = tested on: Twospotted spider mites (Tetranychus urticae Koch); test: Mite/insect screen, SM; conditions: for mortality at 200 ppm: Tetranychus urticae, read-out: SM RESULTS %; for mortality at 200 ppm / SM RESULTS %: percent mortality
Method in brief: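 Read-out: percent mortality after standard exposure periods. Test solutions were water dilutions of compound dissolved in acetone/alcohol (50:50) with emulsifier blends; leaves were sprayed to runoff on both surfaces and air-dried for one hour before exposure.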

[11] = tested on: melon aphids (Aphis gossypii Glover); test: Mite/insect screen, MA; conditions: percent mortality; for mortality at 200 ppm: Aphis gossypii, read-out: MA RESULTS %
Method in brief: as §2

corn rootworm = test: Mite/insect screen, CRW; conditions: percent mortality, read-out: CRW RESULTS %
Method in brief: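 Stock in acetone:alcohol 1:1 + TOXIMUL R 23 g/L + TOXIMUL S 13 g/L; diluted with water to indicated concentrations; mortality (%) after standard exposure.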

[12] = tested on: Erysiphe graminis tritici; test: Field tests against plant pathogens; conditions: field test, crop wheat
Text: as §1

[13] = tested on: Pseudocercosporella herpotrichoides; test: Field tests against plant pathogens; conditions: field test, crop wheat
Text: as §1

Pyrenophora teres = test: Field tests against plant pathogens; conditions: field test, crop barley
Text: as §1

Sphaerotheca fuliginea = test: Field tests against plant pathogens; conditions: field test, crop cucumber
Text: as §1

plant pathogens = test: Fungicidal efficacy against a broad spectrum of plant pathogens (summary of screen); conditions: summary statement in the description
[14] = disease control rating, foliar spray on wheat, 400 ppm (+++ at 100 ppm)
[15] = summary statement in the description
[16] = Test 1, foliar spray on wheat, disease control rating at 400 ppm / 100 ppm
[17] = foliar, rate 200 ppm, foliar spray on squash
[18] = rate 400 ppm, foliar spray on squash
[19] = rate 200 ppm, foliar spray on squash

## Fc1cccc2c(NCCc3ccc4ccccc4c3)ccnc12 [Example 159, 8-fluoro-N-[2-(2-naphthyl)ethyl]-4-quinolinamine]
[1]; [14]
  POWD MDEW: ++ (90-100% control at 400 ppm)
[2]; disease control rating, foliar spray on rice, 400 ppm (+++ at 100 ppm)
  RICE BLAST: +++ (90-100% control at 100 ppm)
[3]; [14]
  LEAF RUST: +++ (90-100% control at 100 ppm)
[4]; disease control rating, spray on grape berries, 400 ppm (+++ at 100 ppm)
  GRAY MOLD: - (0-19% control at 400 ppm)
[5]; disease control rating, foliar spray on squash, 400 ppm (+++ at 100 ppm)
  DOWN MDEW: +++ (90-100% control at 100 ppm)
[5]; [15]
  activity against downy mildew: particularly excellent activity
[6]; disease control rating, foliar spray on sugar beet, 400 ppm (+++ at 100 ppm)
  LEAF SPOT: + (20-89% control at 400 ppm)
[7]; disease control rating, foliar spray on apple seedling, 400 ppm (+++ at 100 ppm)
  APPL SCAB: - (0-19% control at 400 ppm)
[8]; [14]
  LEAF BLOT: +++ (90-100% control at 100 ppm)
Plasmopara viticola
  pathogens against which compounds of the invention showed activity: Plasmopara viticola
Puccinia recondita
  pathogens against which compounds of the invention showed activity: Puccinia recondita
Rhynchosporium secalis
  pathogens against which compounds of the invention showed activity: Rhynchosporium secalis
[9]; SAW, SM & MA RATE 200 PPM
  mortality at 200 ppm: 0%
[10]; SAW, SM & MA RATE 200 PPM
  mortality at 200 ppm: 0%
[11]; SAW, SM & MA RATE 200 PPM
  mortality at 200 ppm: 0%
Corn rootworm; CRW RATE 12.00 PPM
  mortality at 12 ppm: 0%

## Fc1cccc2c(OCCc3ccc(-c4ccccc4)cc3)ccnc12 [Example 200]
[1]; [16]
  POWD MDEW: +++ (90-100% control at 100 ppm)
[2]; Test 1, foliar spray on rice, disease control rating at 400 ppm / 100 ppm
  RICE BLAST: +++ (90-100% control at 100 ppm)
[2]; [15]
  activity against rice blast: particularly excellent activity
[3]; [16]
  LEAF RUST: +++ (90-100% control at 100 ppm)
[4]
  pest or weed control at 400 ppm: 0 to 19%
[5]; Test 1, foliar spray on squash, disease control rating at 400 ppm / 100 ppm
  DOWN MDEW: + (20-89% control at 400 ppm)
[6]
  pest or weed control at 400 ppm: 20 to 89%
[7]
  pest or weed control at 400 ppm: 20 to 89%
[8]
  pest or weed control at 400 ppm: 90 to 100%
[12]
  pathogens against which compounds of the invention showed activity: Erysiphe graminis tritici
[13]
  pathogens against which compounds of the invention showed activity: Pseudocercosporella herpotrichoides
Pyrenophora teres
  pathogens against which compounds of the invention showed activity: Pyrenophora teres
Rhynchosporium secalis
  pathogens against which compounds of the invention showed activity: Rhynchosporium secalis
Sphaerotheca fuliginea
  pathogens against which compounds of the invention showed activity: Sphaerotheca fuliginea
[9]; [17]
  mortality at 200 ppm: 0%
[9]; [18]
  SAW RESULTS %: 50%
[10]; [19]
  SM RESULTS %: 100%
[10]; [18]
  SM RESULTS %: 100%
[10]; [15]
  activity as miticides: particularly excellent activity
[11]; [19]
  MA RESULTS %: 100%
[11]; [18]
  MA RESULTS %: 100%
Corn rootworm; CRW rate 12.00 ppm
  mortality at 12 ppm: 0%
Corn rootworm; CRW rate 24.00 ppm
  mortality at 24 ppm: 0%

## Fc1cccc2c(OCCc3ccccc3)ccnc12 [Example 219, 8-fluoro-4-(2-phenylethoxy)quinoline]
[1]; Blumeria graminis, foliar, Test 1, foliar spray on wheat, disease control rating at 400 ppm / 100 ppm, read-out: POWD MDEW
  pest or weed control at 400 ppm: 90 to 100%
[2]; Pyricularia oryzae, foliar, read-out: RICE BLAST, Test 1, foliar spray on rice, disease control rating at 400 ppm / 100 ppm
  pest or weed control at 400 ppm: 90 to 100%
[3]; Puccinia recondita, foliar, Test 1, foliar spray on wheat, disease control rating at 400 ppm / 100 ppm
  pest or weed control at 400 ppm: 90 to 100%
[4]
  pest or weed control at 400 ppm: 0 to 19%
[5]; Pseudoperonospora cubensis, foliar, Test 1, foliar spray on squash, disease control rating at 400 ppm / 100 ppm, read-out: DOWN MDEW
  pest or weed control at 400 ppm: 90 to 100%
[6]
  pest or weed control at 400 ppm: 20 to 89%
[7]
  pest or weed control at 400 ppm: 20 to 89%
[8]
  pest or weed control at 400 ppm: 20 to 89%
Plant pathogens
  activity against a broad spectrum of plant pathogens: particularly excellent activity
[12]
  pathogens against which compounds of the invention showed activity: Erysiphe graminis tritici
[13]
  pathogens against which compounds of the invention showed activity: Pseudocercosporella herpotrichoides
Pyrenophora teres
  pathogens against which compounds of the invention showed activity: Pyrenophora teres
Rhynchosporium secalis
  pathogens against which compounds of the invention showed activity: Rhynchosporium secalis
Sphaerotheca fuliginea
  pathogens against which compounds of the invention showed activity: Sphaerotheca fuliginea
[9]; [17]
  mortality at 200 ppm: 0%
[10]; [17]
  mortality at 200 ppm: 0%
[11]; [17]
  mortality at 200 ppm: 0%
Corn rootworm; CRW rate 12.00 ppm
  mortality at 12 ppm: 0%
